Measured values reported in publication PMC5701912, “Arylacetamide Deacetylase Is Involved in Vicagrel Bioactivation in Humans” (Frontiers in Pharmacology, 2017).

How the values were obtained:
[1] = system: CES2; assay: Contribution of CES2 to vicagrel hydrolase activity in HIM (RAF method); assay type: in vitro ADME, human
Source text: (§1) The RAF method was applied as the ratio of activity values to evaluate the contribution of CES2 and AADAC to vicagrel hydrolysis in HIM. […] The following formulas were used to predict the vicagrel hydrolase activities of CES2 (VCES2, HIM), and AADAC (VAADAC, HIM) in HIM:
(2) VCES2, HIM = Vrec−CES2 × RAFCES2, HIM
(§2) V rec-CES2 and V rec-AADAC are the vicagrel hydrolase activities of recombinant CES2 and AADAC, respectively. The following equations were used to calculate the contributions of CES2 and AADAC to vicagrel hydrolase activities in HIM:
(4) CES2 in HIM(%) = (VCES2, HIM/VHIM) × 100
(§3) where the V HIM value is the observed vicagrel hydrolase activities in HIM.

[2] = Hydrolase activity in dog intestine microsomes; assay type: in vitro ADME
Source text: (§4) (1) v = Vmax × S/(Km + S)

[3] = Hydrolase activity (kinetics and marker substrates) in human intestine microsomes
Source text: as §4

[4] = system: AADAC; assay: Contribution of AADAC to vicagrel hydrolase activity in HIM (RAF method); assay type: in vitro ADME, human; conditions: phenacetin as probe
Source text: as §1
(3) VAADAC, HIM = Vrec−AADAC × […], HIM
as §2
(5) AADAC in HIM(%) = (VAADAC, HIM/VHIM) × 100
as §3

[5] = Hydrolase activity (kinetics and marker substrates) in human liver microsomes; assay type: in vitro ADME
Source text: as §4

[6] = molecular target: T1, CES2 (Homo sapiens, UniProt O00748); assay: Hydrolase activity by recombinant human CES2; assay type: in vitro ADME
T1 construct: purchased Cypex Ltd. (Scotland, United Kingdom)
T1 sequence (O00748 27-559): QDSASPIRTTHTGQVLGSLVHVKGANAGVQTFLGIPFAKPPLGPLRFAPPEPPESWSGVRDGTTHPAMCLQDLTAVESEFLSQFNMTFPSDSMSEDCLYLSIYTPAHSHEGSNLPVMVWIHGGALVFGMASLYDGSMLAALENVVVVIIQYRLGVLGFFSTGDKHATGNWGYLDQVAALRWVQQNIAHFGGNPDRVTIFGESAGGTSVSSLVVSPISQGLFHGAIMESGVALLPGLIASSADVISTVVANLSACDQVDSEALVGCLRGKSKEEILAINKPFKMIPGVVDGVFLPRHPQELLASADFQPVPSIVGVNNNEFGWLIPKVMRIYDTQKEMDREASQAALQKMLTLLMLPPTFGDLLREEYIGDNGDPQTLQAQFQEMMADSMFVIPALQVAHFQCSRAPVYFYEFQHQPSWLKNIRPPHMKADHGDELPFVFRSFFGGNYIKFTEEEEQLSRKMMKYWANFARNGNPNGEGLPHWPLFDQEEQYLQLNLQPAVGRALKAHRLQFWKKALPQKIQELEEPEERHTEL
Source text: as §4

[7] = molecular target: T2, CES1 (Homo sapiens, UniProt P23141); assay: Hydrolase activity by recombinant human CES1; assay type: in vitro ADME
T2 construct: purchased Cypex Ltd. (Scotland, United Kingdom)
T2 sequence (P23141 18-567): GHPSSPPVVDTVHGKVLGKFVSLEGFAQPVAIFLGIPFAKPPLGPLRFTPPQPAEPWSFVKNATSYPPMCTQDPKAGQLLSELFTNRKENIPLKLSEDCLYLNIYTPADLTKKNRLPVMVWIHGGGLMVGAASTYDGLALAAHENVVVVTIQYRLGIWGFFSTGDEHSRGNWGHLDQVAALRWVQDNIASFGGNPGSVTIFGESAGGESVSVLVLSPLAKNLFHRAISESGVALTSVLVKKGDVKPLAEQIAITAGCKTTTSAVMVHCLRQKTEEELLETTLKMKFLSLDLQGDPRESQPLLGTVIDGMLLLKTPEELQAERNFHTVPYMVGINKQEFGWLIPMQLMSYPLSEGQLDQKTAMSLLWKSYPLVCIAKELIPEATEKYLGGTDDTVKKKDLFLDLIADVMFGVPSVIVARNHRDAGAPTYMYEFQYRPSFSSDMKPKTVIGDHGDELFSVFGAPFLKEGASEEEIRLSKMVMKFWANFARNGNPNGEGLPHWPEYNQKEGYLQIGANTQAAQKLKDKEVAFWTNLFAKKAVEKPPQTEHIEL
Source text: as §4

[8] = parameters: method as in Qiu et al., 2013; conditions: rats and beagle dogs, ref Qiu et al., 2013, cited from earlier work
[9] = parameters: method as in Liu et al., 2017; conditions: healthy subjects; oral 5 mg vicagrel and 75 mg clopidogrel; ref Liu et al., 2017; cited from earlier work
[10] = molecular target: T3, AADAC (Homo sapiens, UniProt P22760); assay: Hydrolase activity by recombinant human AADAC
T3 sequence (P22760 1-399): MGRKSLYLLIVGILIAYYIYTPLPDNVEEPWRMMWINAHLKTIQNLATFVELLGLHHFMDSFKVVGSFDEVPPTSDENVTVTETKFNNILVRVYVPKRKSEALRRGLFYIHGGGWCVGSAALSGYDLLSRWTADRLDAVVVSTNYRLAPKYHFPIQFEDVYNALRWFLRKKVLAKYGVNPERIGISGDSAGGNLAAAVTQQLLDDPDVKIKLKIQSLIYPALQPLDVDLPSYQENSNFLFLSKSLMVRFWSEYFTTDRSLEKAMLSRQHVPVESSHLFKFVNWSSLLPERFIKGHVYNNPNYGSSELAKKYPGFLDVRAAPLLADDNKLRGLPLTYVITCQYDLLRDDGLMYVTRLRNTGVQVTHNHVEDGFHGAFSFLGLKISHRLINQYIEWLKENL

[11] = parameters: method as in Liu et al., 2017; conditions: healthy subjects, oral vicagrel tablets, during the sampling period; ref Liu et al., 2017; cited from earlier work

For COC(=O)[C@H](c1ccccc1Cl)N1CCc2sc(OC(C)=O)cc2C1 [vicagrel, Vicagrel], the “Contribution of CES2 to vicagrel hydrolysis” value ([1]; HIM, RAF method, procaine as probe) was 44.2%, the “Sum of the contributions of CES2 and AADAC to vicagrel hydrolysis” value ([1]; HIM, RAF method, CES2 plus AADAC) was 97.3% and the “Calculated vicagrel hydrolase activity of CES2 in HIM (VCES2, HIM)” value ([1]; Vrec-CES2 × RAFCES2, HIM) was 21.2 nmol/min/mg protein. The “Vmax of vicagrel hydrolysis” value ([2]; DIM 0.01 mg/mL, 1 min) was 171.4 ± 3.9 nmol/min/mg protein, the Km at 1 min ([2]; dog, dog intestine microsomes, pH 7.4, DIM 0.01 mg/mL, 1 min, read-out: Km of vicagrel hydrolysis) was 8.37 ± 0.69 µM and the microsomal CLint ([2]; dog, dog intestine microsomes, pH 7.4, DIM, calculated as Vmax/Km, read-out: CLint of vicagrel hydrolysis) was 20500 ± 1300 µL/min/mg. For the same compound, the “Vmax of vicagrel hydrolysis” value ([3]; HIM 0.01 mg/mL, 1 min) was 347.2 ± 6.4 nmol/min/mg protein, the “Hydrolase activity (vicagrel), VHIM” value ([3]; human, 1 min, pH 7.4) was 48.0 nmol/min/mg and the microsomal CLint ([3]; human, microsomes, pH 7.4) was 53100 ± 1040 µL/min/mg. The Km at 1 min ([3]; human, pH 7.4) was 6.54 ± 0.45 µM, the “Contribution of AADAC to vicagrel hydrolysis” value [4] was “approximately 53%” and the “Contribution of AADAC to vicagrel hydrolysis” value ([4]; listed as Vicagrel) was 53.1%. For the same compound, the “Hydrolase activity (vicagrel)” value ([5]; HLM) was 96.5 nmol/min/mg, the “Vmax of vicagrel hydrolysis” value ([5]; HLM 0.01 mg/mL, 1 min) was 917.6 ± 23.5 nmol/min/mg protein and the Km at 1 min ([5]; human, human liver microsomes, pH 7.4, HLM 0.01 mg/mL, 1 min, formation of 2-oxo-clopidogrel, read-out: Km of vicagrel hydrolysis) was 7.18 ± 0.66 µM. The microsomal CLint ([6]; human, recombinant human CES2, pH 7.4, recombinant CES2, calculated as Vmax/Km, read-out: CLint of vicagrel hydrolysis) was 46100 ± 3100 µL/min/mg, the “Hydrolase activity (vicagrel), Vrec-CES2” value ([6]; recombinant CES2) was 26.1 nmol/min/mg and the “Vmax of vicagrel hydrolysis” value ([6]; recombinant CES2 0.01 mg/mL, 1 min) was 331.2 ± 14.9 nmol/min/mg protein. The microsomal CLint ([7]; human, recombinant human CES1, pH 7.4, recombinant CES1, calculated as Vmax/Km, read-out: CLint of vicagrel hydrolysis) was 29000 ± 2300 µL/min/mg, the “Hydrolase activity (vicagrel)” value ([7]; recombinant CES1) was 17.3 nmol/min/mg and the “Vmax of vicagrel hydrolysis” value ([7]; recombinant CES1 0.01 mg/mL, 2 min) was 264.0 ± 16.6 nmol/min/mg protein. The “Production of H4 from vicagrel relative to clopidogrel” value ([8]; oral, same dose) was “four to six times higher”, the “Production of 2-oxo-clopidogrel from vicagrel relative to clopidogrel” value [8] was “about six times” and the “Antiplatelet effects versus clopidogrel” value [9] was “Comparable antiplatelet effects”. For the same compound, the microsomal CLint ([10]; human, recombinant human AADAC, pH 7.4) was 39000 ± 3100 µL/min/mg, the “Hydrolase activity (vicagrel), Vrec-AADAC” value ([10]; recombinant AADAC) was 21.8 nmol/min/mg and the “Vmax of vicagrel hydrolysis” value ([10]; recombinant AADAC 0.015 mg/mL, 2 min) was 381.7 ± 24.7 nmol/min/mg protein. For the same compound, the “Parent drug in human plasma” value [11] was “undetectable”.
